{
  "source": "patent US20170247693A1",
  "about": "(priority 2016, published 2017)",
  "key": {"[1]": {"system": "HepG2 tumors", "format": "in vivo, SCID mice"}, "[2]": {"system": "uveal melanoma cells (Mel270, OMM2.3, OMM2.5, OMM1, 92.1)", "format": "cell-based"}, "[3]": {"system": "caspase-3", "format": "cell-based, human", "settings": "HepG2 infected with vACE-NT; normoxia; 72 h after administering DOX"}, "[4]": {"system": "caspase-3", "format": "cell-based", "settings": "FLC4 infected with vACE-NT; normoxia; 72 h after administering DOX"}},
  "note": "Where two headings read alike, the source gives them in different places.",
  "data": [
    {"smiles": "COc1cccc2c1C(=O)c1c(O)c3c(c(O)c1C2=O)C[C@@](O)(C(=O)CO)C[C@@H]3O[C@H]1C[C@H](N)[C@H](O)[C@H](C)O1", "note": "[DOX, Doxorubicin]", "values": [
      {"measurement": "reduction of tumor growth rate", "setting": "[1]; DOX 55 mg/kg IP twice a week, tumors infected with vACE-NT, light emission day 42 vs day 14", "result": 45, "unit": "%"},
      {"measurement": "effect on tumors", "setting": "[1]; DOX 75 mg/kg IP twice a week, even in vACE-NT infected tumors", "result": "almost completely eradicate the tumors"},
      {"measurement": "growth rate of tumors on addition of DOX", "setting": "[1]; all tumors (vACE-NT, vACE-CREB, vACE-X3 infected), DOX 55 mg/kg", "result": "reduced the growth rate of all tumors"},
      {"measurement": "cell death in uveal melanoma cells", "setting": "[2]", "result": "induce cell death"},
      {"measurement": "increase of caspase-3 activation", "setting": "[3]", "result": 35, "unit": "fold"},
      {"measurement": "increase of caspase-3 activation", "setting": "[4]", "result": 12, "unit": "fold"}
    ]}
  ]
}
